According to patent US9458427B2, “IFNγR2 compositions and methods of inhibiting neuronal cell death” (Case Western Reserve University, priority 2009, dated 2016):
Ends that are not written are not given here.

How the values were obtained:
[1] = test system: HT1080 (IFNγR2 null mutant and JAK2 null mutant) cells; experiment: Etoposide-induced apoptosis in HT1080-derived IFNγR2 null and Jak2 null cells (Hoechst nuclear staining); format: cell-based, human; conditions: cells lacking IFNγR2 and Jak2, 10 μM etoposide for 24 h
Method: HT1080 (wild type, IFNγR2 null mutant and JAK2 null mutant) cells were cultured in Dulbecco's Modified Eagle's Medium (DMEM) supplemented with 10% fetal bovine serum (FBS). HeLa, Human Embryonic Kidney (HEK) 293 and HEK293T cells were purchased from ATCC, and cultured in DMEM supplemented with 10% FBS. LNCap and PC3 cells were purchased from ATCC and cultured in DMEM F12 medium supplemented with 10% FBS. RWPE1 and RWPE2 were purchased from ATCC and cultured in keratinocytes-SFM plus supplements medium (Gibco). Primary mammary epithelial (4A100) cultures were derived from organoids isolated from discarded mammary tissue acquired from patients undergoing reduction mammoplasty surgery. Anonymized specimens were acquired from patients who had given written consent, through the Tissue Procurement and Histology Core Facility of the Case Comprehensive Cancer Center (Case), under a Case CCC IRB approved protocol. Primary epithelial cultures were grown in M87A+X medium. Human HME1 cells (Clontech) were grown in medium 171 with mammary epithelial growth supplement (Cascade Biologics) and penicillin-streptomycin.42 Human breast cancer cell line MDA-MD468 was cultured in RPMI, 5% FBS, supplemented with L-glutamine, penicillin-streptomycin and fungizone (Gibco). […]
Cells were cultured overnight in DMEM supplemented with 10% FBS. […] Transfection efficiency was analyzed by the expression of the EGFP-tagged proteins.
(§1) Apoptosis was induced by transfecting the cells with pcDNA3-human Bax, or pcDNA3-human Bak, or pcDNA3-human Bim EL, or by treatment with etoposide (10 μM) or staurosporine (100 nM). To determine the induction of apoptosis by different apoptotic stresses, cells were stained with Hoechst 33258 dye, and the numbers of cells with apoptotic nuclei were counted using fluorescence microscopy. Three hundred cells were analyzed in triplicate samples. […] Caspase activity were measured by using a fluorogenic caspase 3 substrate II (Calbiochem), IFNγR2 constructs were cloned in pEGFP-C2 (IFNγR2wild type, IFNγR21-295 and IFNγR2296-337) vector.

Bax [2] = target: T1, Bax (Homo sapiens, UniProt Q07812); experiment: Staurosporine-induced Bax activation in HeLa cells (6A7 antibody immunostaining); format: cell-based; design: endogenous in cells; host or cells: HeLa; conditions: staurosporine 100 nM, 3 h
Method: HeLa cells were transiently transfected with pEGFP-C2-IFNγR2 (wild type 1-295, or 296-337) using […]® (Qiagen, Valencia, Calif.) in accordance with the manufacturer's instructions. Four micograms of the plasmid were used to transfect cells cultured in 6-cm diameter dishes. After 24 h of transfection, the cells were treated with staurosporine (100 nM) for 3 h. Then, the cells were washed with phosphate buffer pH 7.4 (PBS), fixed using paraformaldehyde (1%), permeabilized with Triton X-100 (0.02%), blocked with goat serum, and the activation of Bax was analyzed by immunocytochemistry using monoclonal Bax 6A7 antibody (BDPharmingen) and ALEXA FLUOR® 568-labeled anti-mouse IgG secondary antibody (Invitrogen).

human Bim EL = experiment: Apoptosis induced by Bim overexpression in HEK293T cells; format: cell-based; conditions: 24 h after transfection
Method: (§2) Cells were cultured overnight in DMEM supplemented with 10% FBS. The transfections were performed using […]® (Qiagen, Valencia, Calif.) in accordance with the manufacturer's instructions. Transfection efficiency was analyzed by the expression of the EGFP-tagged proteins.
as §1
(§3) For Bax, Bak or Bim EL overexpression, cells were transfected with either 1 μg pcDNA3-human Bax, 1 μg pcDNA3-human Bak, or 1 μg pcDNA3 human Bim EL, and 4 μg of pEGFP plasmid encoding IFNγR2, and the apoptosis or caspase activity was determined 24 h after the transfection.

Bax [3] = target: T1, Bax; experiment: Apoptosis induced by Bax overexpression in HEK293 cells (Hoechst nuclear staining); format: cell-based; design: expressed in transfected cells; host or cells: HEK293; conditions: HEK293 cells co-transfected with pcDNA3-h Bax and pEGFP-C2-IFNγR2 construct, 24 h after transfection
Method: as §2, §1, §3

[4] = test system: organotypic hippocampal slice cultures; experiment: Neuronal cell death in organotypic hippocampal slice cultures (PI uptake, Nissl staining); format: cell-based; conditions: for Suppression of oligomeric Aβ-induced neuronal loss (Nissl staining): peptide co-applied with oligomeric Aβ; for Prevention of oligomeric Aβ-induced PI uptake: peptide co-applied with oligomeric Aβ (500 nM), after 24-h treatment
Method: (§4) Organotypic hippocampal slice cultures were prepared as described previously. Briefly, hippocampal slice cultures were prepared using 7-10-day-old mouse pups. Slices were cut at 400 μm on a Mcllwain tissue chopper, transferred to Millicell membrane inserts ([…]; Millipore), and placed in 6-well culture plates. The culture medium consisted of basal Eagle's medium with Earle's balanced salt solution, 20% heat-inactivated horse serum, enriched with 5.6 mM glucose. The medium was changed every other day. The effect of oligomeric Ab (500 nM) was tested in the slices that had been maintained for 11-14 days in vitro. Aβ oligomer or reversed sequence of Aβ1-42 control peptide (Aβ42-1) was added to cultures in serum-free medium and, after the treatment, the hippocampal slices were rinsed twice in ice-cold phosphate-buffered saline (PBS), and then harvested by removing the Millicell membrane insert.
To determine neuronal cell death in the hippocampal slices, PI (5 μg/ml) was added to the slice culture medium. Images were acquired through an AxioCam camera on an Axiovert 200M microscope (Zeiss, Oberkochen, Germany). Fluorescent intensity was measured using Image J (NIH, Bethesda, Md., USA). Hematoxylin and eosin (H&E) and Niss1 staining was also performed for routine histochemical and morphological analyses.

[5] = test system: hippocampal slice cultures; experiment: Cell permeability of FITC-tagged peptides in hippocampal slice cultures; format: cell-based, mouse; conditions: after 24-h treatment
Source text: In this study, in addition to utilizing Bax knockout (KO) mice, we utilized BIP to examine the role of Bax in oligomeric Aβ-induced neurotoxicity. BIP used in this study consists of five amino acids, VPTLK, a sequence that is known to inhibit Bax activation. […] Both peptides were tagged with fluorescein isothiocyanate (FITC) so that intracellular delivery can be tracked by FITC signal.

Bax [6] = target: T2, Bax (Mus musculus, UniProt Q07813); experiment: Immunocytochemistry with 6A7 antibody (active Bax) in hippocampal slice cultures; format: cell-based
T2 construct: from tissue; host or cells: mouse hippocampal slice culture
Method: as §4
Cultured hippocampal slices were rinsed with icecold PBS once and fixed for 2 h with 4% paraformaldehayde in 0.1M PBS. After washing with PBS, sections were permeabilized overnight with PBS containing 0.2% Triton X-100. At the end of the permeabilization blocking solution, 10% normal goat serum in PBS was applied for 4 h at room temperature. After washing with PBS, primary antibody was added and incubated for 24-48 h at 4° C. […] Images were then analyzed with the Axiovision software (Zeiss).

[7] = test system: Bim, Bcl-2, Bax, caspase-3; experiment: Western blot analysis of Bim, Bcl-2, Bax and cleaved caspase-3 in hippocampal slice cultures; format: cell-based, mouse
Method: as §4
The protein concentration was determined by BCA assay (Pierce, Rockford, Ill., USA). The extracted proteins were separated on 10 or 12% SDS-polyacrylamide gel and transferred onto polyvinylidene difluoride membranes. The blots were blocked with 10% non-fat milk in TBS-T for 1 h at room temperature, and then treated with primary antibodies diluted with 1% non-fat milk and incubated overnight at 4° C. The following antibodies were used for western blot analysis: anti-caspase-3 (1:1000; Santa Cruz Biotechnology, Santa Cruz, Calif., USA), anti-Bim (1:1000; Stressgen, Farmingdale, N.Y., USA), anti-Bcl-2 (1:1000; Stressgen) and 6A7 (conformational specific Bax antibody) (1:1000; BD Pharmingen, San Diego, Calif., USA).

[8] = test system: C57BL6/J mice hippocampus; experiment: Intrahippocampal injection of oligomeric Aβ in mice; format: in vivo, mouse
Method: C57BL6/J mice (The Jackson Laboratories; 2-3-month-old) were anesthetized with pentobarbital and placed in a stereotaxic frame. Injection was made using a 10-μl microsyringe (Hamilton, Reno, Nev., USA). […] Control animals were prepared identically and injected with the same volume and concentration of Aβ42-1 in PBS. Injections were made at stereotaxic coordinates from bregma; antereoposterior (AP)=2.3 mm, mediolateral (ML)=2.5 mm and doroventral (DV)=−2.5 mm according to a previous report. This corresponds to a site in the dorsal hippocampus in the apical dendritic zones of the CA1 region near the hippocampal fissure. Mice were killed 10 or 20 days after injection, brains dissected out, fixed in 10% buffered-formalin and paraffin-embedded. For brain tissue sections, 6-μm-thick serial sections were cut, mounted onto slides and rehydrated according to standard protocols.
Cultured hippocampal slices were rinsed with icecold PBS once and fixed for 2 h with 4% paraformaldehayde in 0.1M PBS. After washing with PBS, sections were permeabilized overnight with PBS containing 0.2% Triton X-100. At the end of the permeabilization blocking solution, 10% normal goat serum in PBS was applied for 4 h at room temperature. After washing with PBS, primary antibody was added and incubated for 24-48 h at 4° C. After thorough washing of the sections in PBS, a secondary antibody labeled with either Alexa Fluor (Life Technologies, Grand Island, N.Y., USA) 488 or 568 (1:300) was added and incubated for 4 h at room temperature. All of the experiments contained at least one sample incubated without a primary antibody to exclude non-specific signal. Nuclei were visualized with DAPI. Images were acquired through an AxioCam camera on an Axiovert 200M microscope (Zeiss). Images were then analyzed with the Axiovision software (Zeiss).
Detection of 3′-OH termini of DNA strand breaks was performed using in situ cell death detection kit (Roche). Briefly, the tissue sections were treated with proteinase K (20 μg/ml in 10 mmol/l Tris-HCl, pH 7.4) for 30 min at 37° C. after rehydration. After rinsing with PBS, TUNEL reaction mixture containing terminal deoxynucleotidyl transferase and fluorescence-labeled nucleotide was applied for 1 h 37° C. The samples were then washed and mounted using Aquamount (Southern Biotech, Birmingham, Ala., USA).

T1 sequence (Q07812 whole entry): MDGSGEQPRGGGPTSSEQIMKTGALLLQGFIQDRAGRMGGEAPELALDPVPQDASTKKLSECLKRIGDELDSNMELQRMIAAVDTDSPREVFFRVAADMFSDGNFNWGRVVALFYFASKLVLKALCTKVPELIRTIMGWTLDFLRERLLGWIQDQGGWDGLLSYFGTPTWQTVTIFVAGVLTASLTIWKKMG
T2 sequence (Q07813 whole entry): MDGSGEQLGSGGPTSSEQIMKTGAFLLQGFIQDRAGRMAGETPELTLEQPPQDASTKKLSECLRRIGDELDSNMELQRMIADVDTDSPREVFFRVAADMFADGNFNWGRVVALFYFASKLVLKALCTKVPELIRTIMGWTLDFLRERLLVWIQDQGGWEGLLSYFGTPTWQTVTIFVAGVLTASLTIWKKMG

IFNγR2296-337: mutant encoding amino acids 296-337 of IFNγR2, lacking the Jak2-binding domain; expressed as EGFP fusion (KDPTQPILEALDKDSSPKDDVWDSVSIISFPEKEQEDVLQTL; also: EGFP fusion; listed as Homo sapiens)
Inhibition of etoposide-induced apoptosis [1]: able to inhibit etoposide-induced apoptosis | Inhibition of STS-induced Bax activation (6A7 Ab-positive cells in GFP-positive cells) (Bax [2]): inhibited STS-induced Bax activation | Inhibition of apoptosis induced by Bim overexpression (human Bim EL): able to inhibit apoptosis induced by Bim overexpression | Inhibition of apoptosis induced by Bax overexpression (Bax [3]): able to inhibit apoptosis induced by Bax overexpression

KLVPT [control peptide]
Suppression of oligomeric Aβ-induced neuronal loss (Nissl staining) [4]: failed to prevent neuronal cell death | Prevention of oligomeric Aβ-induced PI uptake [4]: did not affect the level of PI uptake | Cell permeability (green fluorescence of FITC-tagged peptide in neuronal cells) [5]: equally penetrated neuronal cells

VPTLK (also: FITC tag, site not given here) [BIP]
Suppression of oligomeric Aβ-induced neuronal loss (Nissl staining) [4]: significantly suppressed | Prevention of oligomeric Aβ-induced PI uptake [4]: significantly prevented PI uptake | Cell permeability (green fluorescence of FITC-tagged peptide in neuronal cells) [5]: equally penetrated neuronal cells | Suppression of oligomeric Aβ-induced conformational change of Bax (6A7) (Bax [6]; slices treated with oligomeric Aβ for 48 h): suppresses oligomeric Aβ-induced conformational change of Bax | Suppression of oligomeric Aβ-induced caspase-3 activation (immunoblot) ([7]; peptide co-applied with oligomeric Aβ): significantly suppressed

oligomeric Aβ: soluble oligomeric Aβ prepared from synthetic Aβ1-42 peptide (AnaSpec)
Level of Bim in hippocampus ([8]; 10 days after injection): dramatically increased | Number of neurons containing the active form of Bax (6A7 antibody) ([8]; 10 days after injection): dramatically increased | Neuronal cell death in hippocampus ([8]; WT mouse, 20 days after intrahippocampal injection): induced neuronal cell death | Number of TUNEL-positive neurons ([8]; intrahippocampal injection): significantly increased | Neuronal cell death induced by oligomeric Aβ in slice culture from bax−/− mice ([4]; bax−/− versus wild-type slices, 500 nM, 48 h): dramatically reduced | PI uptake / number of PI-positive cells (neuronal cell death) ([4]; wild-type slices, 500 nM, 48 h of treatment): significantly increased | Number of 6A7-positive cells (active form of Bax) (Bax [6]; slice cultures, 24 h after treatment): significantly increased | Level of Bax ([7]; oligomeric Aβ-treated brain slices): not affected | Expression of Bim ([7]; oligomeric Aβ-treated brain slices, time-dependent): increased the expression of Bim

B1: IFNγR21-295: mutant encoding amino acids 1-295 of IFNγR2, retaining Jak2-binding domain but not the C-terminal 41 amino acids (protein)
chain: APPDPLSQLPAPQHPKIRLYNAEQVLSWEPVALSNSTRPVVYQVQFKYTDSKWFTADIMSIGVNCTQITATECDFTAASPSAGFPMDFNVTLRLRAELGALHSAWVTMPWFQHYRNVTVGPPENIEVTPGEGSLIIRFSSPFDIADTSTAFFCYYVHYWEKGGIQQVKGPFRSNSISLDNLKPSRVYCLQVQAQLLWNKSNIFRVGHLSNISCYETMADASTELQQVILISVGTFSLLSVLAGACFFLVLKYRGLIKYWFHTPPSIPLQIEEYL
modifications: left off: large carriers
Inhibition of etoposide-induced apoptosis [1]: could not | Inhibition of STS-induced Bax activation (6A7 Ab-positive cells in GFP-positive cells) (Bax [2]): did not inhibit Bax activation | Inhibition of apoptosis induced by Bax overexpression (Bax [3]): could not protect cells from Bax
